# From patent publication US12134610B2, “Somatostatin subtype-2 receptor (SST2R) targeted therapeutics and uses thereof” (priority 2022, dated 2024)
# Like-named read-outs stand apart in the source and are kept apart here. Starred links: 1 amine or outer side, 2 acyl side, 3 side chain; linkers in the order of their positions; H or OH if unused. Non-standard residues stand in square brackets, D forms with d. Residues, ends and D or L forms follow the SMILES beside them. *: point of attachment. X1 = Cc1cc(F)cc(-c2cnc(NCCNC(=O)CCOCCC(=O)*)c(-c3nc4ccc(Cl)cc4[nH]3)c2N2CCC(N)CC2)c1; Dolaproine = CO[C@@H]([C@@H]1CCCN1)[C@@H](C)C(=O)O; Dil = CC[C@H](C)[C@H](NC)[C@@H](CC(=O)O)OC; PABC = O=C(OCc1ccc(N[*:1])cc1)[*:2]; X2 = C[C@@H](N*)[C@@H](O)c1ccccc1; Cit = NC(=O)NCCC[C@H](N)C(=O)O; NMeV = CN[C@H](C(=O)O)C(C)C
# Key:
# Type in all cases: cell-based
# [1] = molecular target: T1, SST2 (Homo sapiens, UniProt P30874); test: PathHunter CHO-K1 SST2 internalization assay; settings: PathHunter CHO-K1 SST2, 90 min
# T1 construct: host or cells: PathHunter CHO-K1 SST2 cells
# How it was run: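 PathHunter CHO-K1 SST2 cells, seeded and grown 48 h, were exposed to 11-point 1:3 dilutions of SMDC (top final 10 uM) for 90 min at 37 C, 5% CO2. Beta-Glo luminescence was read after 60 min at room temperature. Background-corrected duplicate means were fitted by four-parameter nonlinear regression to give IC50.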
# [2] = tested on: NCI-H524 (ATCC) human small cell lung cancer cells
# How it was run: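 NCI-H524 cells (5,000/well) were exposed 24 h after plating to SMDC for 2 h, 11-point two-fold series from 1 uM. After washout they grew a further 70 h. Proliferation was read by CellTiter-Glo luminescence, % inhibition taken vs untreated control, and IC50 fitted by four-parameter nonlinear regression.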
# [3] = molecular target: T2, human somatostatin receptor subtype 2 (Homo sapiens, UniProt P30874); test: Functional cAMP assay for SSTR2 agonists (HTRF) in CHO-K1 cells; settings: CHO-K1 cells stably expressing human SST2, 20 min
# T2 construct: expressed in transfected cells
# How it was run: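 CHO-K1 cells stably expressing receptor, plated 4 days before assay, treated 20 min at 37° C. with compound (typically 0-10,000 nM final) plus IBMX and 1.6 μM NKH477 to raise cAMP. HTRF read, 665/620 nm ratio; cAMP from standard curve, EC50 fitted.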
# T1 sequence (P30874 whole entry): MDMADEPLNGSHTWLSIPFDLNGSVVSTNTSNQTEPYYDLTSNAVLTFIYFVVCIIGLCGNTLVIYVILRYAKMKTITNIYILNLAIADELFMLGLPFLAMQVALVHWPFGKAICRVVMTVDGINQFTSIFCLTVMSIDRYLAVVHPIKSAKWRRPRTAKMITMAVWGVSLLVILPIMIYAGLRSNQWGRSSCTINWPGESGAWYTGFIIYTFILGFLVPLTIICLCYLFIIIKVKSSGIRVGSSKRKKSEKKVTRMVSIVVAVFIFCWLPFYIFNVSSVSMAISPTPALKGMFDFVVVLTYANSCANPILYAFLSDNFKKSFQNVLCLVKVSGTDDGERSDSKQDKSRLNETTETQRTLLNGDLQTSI
# T2 sequence (P30874 whole entry): as above
SMILES,EC50 ([1]; read-out: Internalization EC50),EC50 ([2]; 2 h),EC50 ([3]; read-out: hSST2 cAMP Avg EC50),EC50 ([1]; Internalization EC50 (nM)),"EC50 ([2]; 2 h treatment, washout, additional 70 h, read-out: H524 EC50)",EC50 ([3]; hSST2 cAMP Avg EC50 (nM))
CC[C@H](C)[C@@H]([C@@H](CC(=O)N1CCC[C@H]1[C@H](OC)[C@@H](C)C(=O)N[C@H](C)[C@@H](O)c1ccccc1)OC)N(C)C(=O)[C@@H](NC(=O)[C@H](C(C)C)N(C)C(=O)OCc1ccc(NC(=O)[C@H](CCCNC(N)=O)NC(=O)[C@@H](NC(=O)CCOCCC(=O)N[C@@H](CS(=O)(=O)O)C(=O)NCCNc2ncc(-c3cc(C)cc(F)c3)c(N3CCC(N)CC3)c2-c2nc3ccc(Cl)cc3[nH]2)C(C)C)cc1)C(C)C [Compound 70],17 nM,68 nM,0.44 nM,,,
CCC(C)C(C(CC(=O)N1CCCC1C(OC)C(C)C(=O)NC(C)C(O)c1ccccc1)OC)N(C)C(=O)C(NC(=O)C(C(C)C)N(C)C(=O)OCc1ccc(NC(=O)[C@H](CCCNC(N)=O)NC(=O)[C@@H](NC(=O)CNC(=O)[C@H](Cc2ccccc2)NC(=O)CNC(=O)CNC(=O)CCOCCC(=O)NCCNc2ncc(-c3cc(C)cc(F)c3)c(N3CCC(N)CC3)c2-c2nc3ccc(Cl)cc3[nH]2)C(C)C)cc1)C(C)C (stereo in doubt) [Compound 30],7.1 nM,28.6 nM,0.56 nM,,,
CC[C@@]1(O)C(=O)OCc2c1cc1n(c2=O)Cc2c-1nc1cc(F)c(C)c3c1c2[C@@H](NC(=O)OCc1ccc(NC(=O)[C@H](CCCNC(N)=O)NC(=O)[C@@H](NC(=O)CN2CCN(CC(=O)O)CCN(CC(=O)NCCOCCC(=O)NCCNc4ncc(-c5cc(C)cc(F)c5)c(N5CCC(N)CC5)c4-c4nc5ccc(Cl)cc5[nH]4)CC2)C(C)C)cc1)CC3 [Compound 72],,,,3.9 nM,31 nM,0.28 nM
CC[C@H](C)[C@@H]([C@@H](CC(=O)N1CCC[C@H]1[C@H](OC)[C@@H](C)C(=O)N[C@H](C)[C@@H](O)c1ccccc1)OC)N(C)C(=O)[C@@H](NC(=O)[C@H](C(C)C)N(C)C(=O)OCc1ccc(NC(=O)[C@H](C)NC(=O)[C@@H](NC(=O)[C@H](CCC(N)=O)NC(=O)CCOCCC(=O)NCCNc2ncc(-c3cc(C)cc(F)c3)c(N3CCC(N)CC3)c2-c2nc3ccc(Cl)cc3[nH]2)C(C)C)cc1C(=O)NCCN)C(C)C [Compound 118],3.8 nM,0.65 nM,0.068 nM,,,
CC[C@@H](C)[C@H]([C@H](CC(=O)N1CCC[C@@H]1[C@@H](OC)[C@H](C)C(=O)N[C@@H](C)[C@H](O)c1ccccc1)OC)N(C)C(=O)C(NC(=O)[C@@H](C(C)C)N(C)C(=O)OCc1ccc(NC(=O)[C@H](CCCNC(N)=O)NC(=O)[C@@H](NC(=O)CCOCCNC(=O)[C@H](CS(=O)(=O)O)NC(=O)CCOCCOCCOCCOCCC(=O)NCCNc2ncc(-c3cc(C)cc(F)c3)c(N3CCC(N)CC3)c2-c2nc3ccc(Cl)cc3[nH]2)C(C)C)cc1)C(C)C (stereo partly drawn) [Compound 44],17.2 nM,101 nM,0.089 nM,,,
CC[C@H](C)[C@@H]([C@@H](CC(=O)N1CCC[C@H]1[C@H](OC)[C@@H](C)C(=O)N[C@H](C)[C@@H](O)c1ccccc1)OC)N(C)C(=O)[C@@H](NC(=O)[C@H](C(C)C)N(C)C(=O)OCc1ccc(NC(=O)[C@H](C)NC(=O)[C@@H](NC(=O)[C@H](CS(=O)(=O)O)NC(=O)CCOCCC(=O)NCCNc2ncc(-c3cc(C)cc(F)c3)c(N3CCC(N)CC3)c2-c2nc3ccc(Cl)cc3[nH]2)C(C)C)cc1C(=O)NCCN)C(C)C [Compound 117],2.6 nM,3.7 nM,0.081 nM,,,
CC[C@H](C)[C@@H]([C@@H](CC(=O)N1CCC[C@H]1[C@H](OC)[C@@H](C)C(=O)N[C@H](C)[C@@H](O)c1ccccc1)OC)N(C)C(=O)[C@@H](NC(=O)[C@H](C(C)C)N(C)C(=O)OCc1ccc(NC(=O)[C@H](CCCNC(N)=O)NC(=O)[C@@H](NC(=O)CNC(=O)[C@H](CCC(=O)O)NC(=O)[C@H](CCC(=O)O)NC(=O)CCOCCC(=O)NCCNc2ncc(-c3cc(C)cc(F)c3)c(N3CCC(N)CC3)c2-c2nc3ccc(Cl)cc3[nH]2)C(C)C)cc1)C(C)C [Compound 111] (X1-EEGV[Cit][PABC][NMeV]V[Dil][Dolaproine]-X2),22 nM,360 nM,1.2 nM,,,
CC[C@H](C)[C@@H]([C@@H](CC(=O)N1CCC[C@H]1[C@H](OC)[C@@H](C)C(=O)N[C@H](C)[C@@H](O)c1ccccc1)OC)N(C)C(=O)[C@@H](NC(=O)[C@H](C(C)C)N(C)C(=O)OCc1ccc(NC(=O)[C@H](CCCNC(N)=O)NC(=O)[C@@H](NC(=O)[C@H](CCC(N)=O)NC(=O)CCOCCOCCOCCOCCC(=O)NCCNc2ncc(-c3cc(C)cc(F)c3)c(N3CCC(N)CC3)c2-c2nc3ccc(Cl)cc3[nH]2)C(C)C)cc1C(=O)NC)C(C)C [Compound 60],13 nM,35 nM,0.1 nM,,,
CC[C@H](C)[C@@H]([C@@H](CC(=O)N1CCC[C@H]1[C@H](OC)[C@@H](C)C(=O)N[C@H](C)[C@@H](O)c1ccccc1)OC)N(C)C(=O)[C@@H](NC(=O)[C@H](C(C)C)N(C)C(=O)OCc1ccc(NC(=O)[C@H](CCCNC(N)=O)NC(=O)[C@@H](NCCOCCOCCOCCOCCC(=O)NCCNc2ncc(-c3cc(C)cc(F)c3)c(N3CCC(N)CC3)c2-c2nc3ccc(Cl)cc3[nH]2)C(C)C)cc1)C(C)C [Compound 69],7.8 nM,14.5 nM,0.25 nM,,,
CC[C@H](C)[C@@H]([C@@H](CC(=O)N1CCC[C@H]1[C@H](OC)[C@@H](C)C(=O)N[C@H](C)[C@@H](O)c1ccccc1)OC)N(C)C(=O)[C@@H](NC(=O)[C@H](C(C)C)N(C)C(=O)OCc1ccc(NC(=O)[C@H](CCCNC(N)=O)NC(=O)[C@@H](NC(=O)CCOCCNC(=O)CN2CCN(CC(=O)O)CCN(CC(=O)NCCNc3ncc(-c4cc(C)cc(F)c4)c(N4CCC(N)CC4)c3-c3nc4ccc(Cl)cc4[nH]3)CC2)C(C)C)cc1)C(C)C [Compound 37],13.7 nM,102 nM,0.071 nM,,,
CC[C@H](C)[C@@H]([C@@H](CC(=O)N1CCC[C@H]1[C@H](OC)[C@@H](C)C(=O)N[C@H](C)[C@@H](O)c1ccccc1)OC)N(C)C(=O)[C@@H](NC(=O)[C@H](C(C)C)N(C)C(=O)OCc1ccc(NC(=O)[C@H](CCCNC(N)=O)NC(=O)[C@@H](NC(=O)[C@H](CCC(N)=O)NC(=O)CCOCCOCCOCCOCCC(=O)NCCNc2ncc(-c3cc(C)cc(F)c3)c(N3CCC(N)CC3)c2-c2nc3ccc(Cl)cc3[nH]2)C(C)C)cc1C(=O)NCCN)C(C)C [Compound 58],5 nM,11 nM,0.37 nM,,,
"Cc1cc(F)cc(-c2cnc(NCCNC(=O)CCOCCC(=O)NCCNC(=O)c3c(C)[nH]c(/C=C4\C(=O)Nc5ccc(F)cc54)c3C)c(-c3nc4ccc(Cl)cc4[nH]3)c2N2CCC(N)CC2)c1 [Compound 29, N-(2-{[4-(4-aminopiperidin-1-yl)-3-(6-chloro-1H-1,3-benzodiazol-2-yl)-5-(3-fluoro-5-methylphenyl)pyridin-2-yl]amino}ethyl)-3-[2-({2-[(5-{[(3Z)-5-fluoro-2-oxo-2,3-dihydro-1H-indol-3-ylidene]methyl}-2,4-dimethyl-1H-pyrrol-3-yl)formamido]ethyl}carbamoyl)ethoxy]propenamide]",2.2 nM,> 10000 nM,0.065 nM,,,
COc1cc2cc(c1Cl)N(C)C(=O)CC(OC(=O)[C@@H](C)N(C)C(=O)CCSC1CC(=O)N(CC3CCC(C(=O)NCCNc4ncc(-c5cc(C)cc(F)c5)c(N5CCC(N)CC5)c4-c4nc5ccc(Cl)cc5[nH]4)CC3)C1=O)[C@]1(C)OC1[C@@H](C)C1C[C@@](O)(NC(=O)O1)[C@H](OC)/C=C/C=C(\C)C2 (stereo partly drawn) [Compound 6],5.3 nM,11.7 nM,0.22 nM,,,
CC[C@H](C)[C@@H]([C@@H](CC(=O)N1CCC[C@H]1[C@H](OC)[C@@H](C)C(=O)N[C@H](C)[C@@H](O)c1ccccc1)OC)N(C)C(=O)[C@@H](NC(=O)[C@H](C(C)C)N(C)C(=O)OCc1ccc(NC(=O)[C@H](CCCNC(N)=O)NC(=O)[C@@H](NC(=O)[C@H](CCC(N)=O)NC(=O)CCOCCC(=O)NCCNc2ncc(-c3cc(C)cc(F)c3)c(N3CCC(N)CC3)c2-c2nc3ccc(Cl)cc3[nH]2)C(C)C)cc1)C(C)C [Compound 56] (X1-QV[Cit][PABC][NMeV]V[Dil][Dolaproine]-X2),15.1 nM,10.3 nM,0.23 nM,,,
CC[C@H](C)[C@@H]([C@@H](CC(=O)N1CCC[C@H]1[C@H](OC)[C@@H](C)C(=O)N[C@H](C)[C@@H](O)c1ccccc1)OC)N(C)C(=O)[C@@H](NC(=O)[C@H](C(C)C)N(C)C(=O)OCc1ccc(O[C@@H]2O[C@H](C(=O)O)[C@@H](O)[C@H](O)[C@H]2O)c(NC(=O)[C@H](C)NC(=O)[C@@H](NC(=O)CCOCCC(=O)NCCNc2ncc(-c3cc(C)cc(F)c3)c(N3CCC(N)CC3)c2-c2nc3ccc(Cl)cc3[nH]2)C(C)C)c1)C(C)C [Compound 148],4.5 nM,7.9 nM,0.086 nM,,,
